Test results reported in ChEMBL document CHEMBL2157914, “Synthesis, anti-inflammatory and antimicrobial evaluation of novel 1-acetyl-3,5-diaryl-4,5-dihydro (1H) pyrazole derivatives bearing urea, thiourea and sulfonamide moieties” (2012).
Converted amounts (≈) assume the structure as drawn. The source made the active and inactive calls. The calls are words filed in the database; no cut-off is given here.

Tests used:
Fusarium solani [1] = assay: Antifungal activity against Fusarium solani MTCC 350 up to 200 ug/mL after 2 to 3 days by agar well diffusion method; format: functional, organism-based
THP-1 [2] = assay: Antiinflammatory activity in human THP1 cells assessed as inhibition of LPS-stimulated TNFalpha production at 10 uM incubated for 30 mins prior to LPS-challenge measured 24 hrs post LPS challenge by ELISA; format: functional
Escherichia coli = assay: Antibacterial activity against Escherichia coli MTCC 443 after 24 hrs by agar well diffusion method; format: functional; settings: MTCC 443, 24 h
Bacillus subtilis [3] = assay: Antibacterial activity against Bacillus subtilis MTCC 441 after 24 hrs by agar well diffusion method; format: functional; settings: MTCC 441, 24 h
Aspergillus flavus [4] = assay: Antifungal activity against Aspergillus flavus MTCC 277 up to 200 ug/mL after 2 to 3 days by agar well diffusion method; format: functional, organism-based
Staphylococcus aureus [5] = assay: Antibacterial activity against Staphylococcus aureus MTCC 96 up to 200 ug/mL after 24 hrs by agar well diffusion method; format: functional, organism-based
Aspergillus niger [6] = assay: Antifungal activity against Aspergillus niger MTCC 281 up to 200 ug/mL after 2 to 3 days by agar well diffusion method; format: functional, organism-based
Candida albicans = assay: Antifungal activity against Candida albicans MTCC 227 after 2 to 3 days by agar well diffusion method; format: functional
THP-1 [7] = assay: Antiinflammatory activity in human THP1 cells assessed as inhibition of LPS-stimulated IL-6 production at 10 uM incubated for 30 mins prior to LPS-challenge measured 24 hrs post LPS-challenge by ELISA; format: functional
Salmonella typhimurium [8] = assay: Antibacterial activity against Salmonella typhimurium MTCC 98 after 24 hrs by agar well diffusion method; format: functional, Salmonella enterica subsp. enterica serovar Typhimurium; settings: Salmonella enterica, MTCC 98, 24 h
Aspergillus flavus [9] = assay: Antifungal activity against Aspergillus flavus MTCC 277 after 2 to 3 days by agar well diffusion method; format: functional
Aspergillus niger [10] = assay: Antifungal activity against Aspergillus niger MTCC 281 after 2 to 3 days by agar well diffusion method; format: functional
Fusarium solani [11] = assay: Antifungal activity against Fusarium solani MTCC 350 after 2 to 3 days by agar well diffusion method; format: functional
Staphylococcus aureus [12] = assay: Antibacterial activity against Staphylococcus aureus MTCC 96 after 24 hrs by agar well diffusion method; format: functional; settings: MTCC 96, 24 h
Bacillus subtilis [13] = assay: Antibacterial activity against Bacillus subtilis MTCC 441 up to 200 ug/mL after 24 hrs by agar well diffusion method; format: functional, organism-based
Salmonella typhimurium [14] = assay: Antibacterial activity against Salmonella typhimurium MTCC 98 up to 200 ug/mL after 24 hrs by agar well diffusion method; format: functional, organism-based; settings: Salmonella enterica subsp. enterica serovar Typhimurium

| Structure (SMILES) | MIC (Escherichia coli) [µg/mL] | MIC (Bacillus subtilis [3]) [µg/mL] | MIC (Candida albicans) [µg/mL] | MIC (Salmonella typhimurium [8]) [µg/mL] | MIC (Aspergillus flavus [9]) [µg/mL] | MIC (Aspergillus niger [10]) [µg/mL] | MIC (Fusarium solani [11]) [µg/mL] | MIC (Staphylococcus aureus [12]) [µg/mL] | Activity (Fusarium solani [1]) | inhibition at 10 µM (THP-1 [2]) [%] | Activity (Aspergillus flavus [4]) | Activity (Staphylococcus aureus [5]) | Activity (Aspergillus niger [6]) | inhibition at 10 µM (THP-1 [7]) [%] | Activity (Bacillus subtilis [13]) | Activity (Salmonella typhimurium [14]) |
| --- | --- | --- | --- | --- | --- | --- | --- | --- | --- | --- | --- | --- | --- | --- | --- | --- |
| COc1ccc(C(=O)/C=C/c2ccc([N+](=O)[O-])cc2)cc1OC | 80 (≈ 255 µM) | 90 (≈ 287 µM) | 90 (≈ 287 µM) | 90 (≈ 287 µM) | – | – | – | – | inactive | 0 | inactive | inactive | inactive | 0 | – | – |
| Clc1ccc(COC(Cn2ccnc2)c2ccc(Cl)cc2Cl)c(Cl)c1 (stereo not drawn) [MICONAZOLE] | – | – | 20 (≈ 48.1 µM) | – | 20 (≈ 48.1 µM) | 15 (≈ 36 µM) | 15 (≈ 36 µM) | – | – | – | – | – | – | – | – | – |
| COc1ccc(C2=NN(C(C)=O)C(c3ccc(NC(=S)Nc4ccccc4F)cc3)C2)cc1OC (stereo not drawn) | 55 (≈ 112 µM) | 80 (≈ 162 µM) | 80 (≈ 162 µM) | 90 (≈ 183 µM) | 90 (≈ 183 µM) | – | 90 (≈ 183 µM) | 80 (≈ 162 µM) | – | 78 | – | – | inactive | 84 | – | – |
| COc1ccc(C2=NN(C(C)=O)C(c3ccc([N+](=O)[O-])cc3)C2)cc1OC (stereo not drawn) | 65 (≈ 176 µM) | 50 (≈ 135 µM) | 90 (≈ 244 µM) | 90 (≈ 244 µM) | 90 (≈ 244 µM) | 90 (≈ 244 µM) | – | 90 (≈ 244 µM) | inactive | 0 | – | – | – | 0 | – | – |
| COc1ccc(C2=NN(C(C)=O)C(c3ccc(NC(=O)Nc4ccccc4C(F)(F)F)cc3)C2)cc1OC (stereo not drawn) | 60 (≈ 114 µM) | 90 (≈ 171 µM) | 80 (≈ 152 µM) | 90 (≈ 171 µM) | 80 (≈ 152 µM) | 90 (≈ 171 µM) | 75 (≈ 142 µM) | 75 (≈ 142 µM) | – | 61 | – | – | – | 80 | – | – |
| COc1cccc(NC(=S)Nc2ccc(C3CC(c4ccc(OC)c(OC)c4)=NN3C(C)=O)cc2)c1 (stereo not drawn) | 70 (≈ 139 µM) | 90 (≈ 178 µM) | 80 (≈ 159 µM) | 90 (≈ 178 µM) | 95 (≈ 188 µM) | 95 (≈ 188 µM) | – | 55 (≈ 109 µM) | – | 11 | – | – | – | 26 | – | – |
| COc1ccc(C2=NN(C(C)=O)C(c3ccc(NC(=O)Nc4ccccc4OC(F)(F)F)cc3)C2)cc1OC (stereo not drawn) | 40 (≈ 73.7 µM) | 40 (≈ 73.7 µM) | 40 (≈ 73.7 µM) | 60 (≈ 111 µM) | 30 (≈ 55.3 µM) | 75 (≈ 138 µM) | 60 (≈ 111 µM) | 55 (≈ 101 µM) | – | 58 | – | – | – | 75 | – | – |
| COc1ccc(C2=NN(C(C)=O)C(c3ccc(NC(=O)Nc4ccc(C(F)(F)F)cc4Cl)cc3)C2)cc1OC (stereo not drawn) | 45 (≈ 80.2 µM) | 60 (≈ 107 µM) | 55 (≈ 98 µM) | 80 (≈ 143 µM) | 20 (≈ 35.7 µM) | 35 (≈ 62.4 µM) | 20 (≈ 35.7 µM) | 35 (≈ 62.4 µM) | – | 3 | – | – | – | 8 | – | – |
| COc1ccccc1NC(=S)Nc1ccc(C2CC(c3ccc(OC)c(OC)c3)=NN2C(C)=O)cc1 (stereo not drawn) | 90 (≈ 178 µM) | – | 90 (≈ 178 µM) | – | – | – | 75 (≈ 149 µM) | – | – | 0 | inactive | inactive | inactive | 0 | inactive | inactive |

The next lines start with results.

| MIC (Escherichia coli) [µg/mL] | MIC (Bacillus subtilis [3]) [µg/mL] | MIC (Candida albicans) [µg/mL] | MIC (Salmonella typhimurium [8]) [µg/mL] | MIC (Aspergillus flavus [9]) [µg/mL] | MIC (Aspergillus niger [10]) [µg/mL] | MIC (Fusarium solani [11]) [µg/mL] | MIC (Staphylococcus aureus [12]) [µg/mL] | Structure (SMILES) | Activity (Fusarium solani [1]) | inhibition at 10 µM (THP-1 [2]) [%] | Activity (Aspergillus flavus [4]) | Activity (Staphylococcus aureus [5]) | Activity (Aspergillus niger [6]) | inhibition at 10 µM (THP-1 [7]) [%] | Activity (Bacillus subtilis [13]) | Activity (Salmonella typhimurium [14]) |
| --- | --- | --- | --- | --- | --- | --- | --- | --- | --- | --- | --- | --- | --- | --- | --- | --- |
| 75 (≈ 152 µM) | 90 (≈ 182 µM) | 70 (≈ 142 µM) | 90 (≈ 182 µM) | 90 (≈ 182 µM) | 90 (≈ 182 µM) | 65 (≈ 132 µM) | 90 (≈ 182 µM) | COc1ccc(C2=NN(C(C)=O)C(c3ccc(NS(=O)(=O)c4ccc(C)cc4)cc3)C2)cc1OC (stereo not drawn) | – | 0 | – | – | – | 0 | – | – |
| 90 (≈ 178 µM) | 65 (≈ 129 µM) | 65 (≈ 129 µM) | 90 (≈ 178 µM) | 70 (≈ 139 µM) | 40 (≈ 79.3 µM) | 80 (≈ 159 µM) | 80 (≈ 159 µM) | COc1ccc(C2=NN(C(C)=O)C(c3ccc(NS(=O)(=O)c4ccccc4C#N)cc3)C2)cc1OC (stereo not drawn) | – | 10 | – | – | – | 31 | – | – |
| 30 (≈ 60 µM) | 35 (≈ 70.1 µM) | 55 (≈ 110 µM) | 45 (≈ 90.1 µM) | 35 (≈ 70.1 µM) | 20 (≈ 40 µM) | 20 (≈ 40 µM) | 60 (≈ 120 µM) | COc1ccc(C2=NN(C(C)=O)C(c3ccc(NC(=S)Nc4ccc(C#N)cc4)cc3)C2)cc1OC (stereo not drawn) | – | 0 | – | – | – | 21 | – | – |
| 45 (≈ 94.4 µM) | 80 (≈ 168 µM) | 80 (≈ 168 µM) | 80 (≈ 168 µM) | 80 (≈ 168 µM) | 80 (≈ 168 µM) | 90 (≈ 189 µM) | 60 (≈ 126 µM) | COc1ccc(C2=NN(C(C)=O)C(c3ccc(NC(=O)Nc4ccccc4F)cc3)C2)cc1OC (stereo not drawn) | – | 85 | – | – | – | 93 | – | – |
